Measurements reported in patent US8546377B2 (AbbVie Inc., priority 2009, dated 2013).
Like-named read-outs stand apart in the source and are kept apart here.

Columns and labels:
5HT2C receptors = target: T1, 5HT2C receptors (Homo sapiens, UniProt P28335); test: Human 5-HT2C functional assay in CHO-K1 cells (calcium flux, FLIPR); assay type: cell-based; parameters: expressed in transfected cells; host or cells: CHO-K1 cells
T1 sequence (P28335 33-458): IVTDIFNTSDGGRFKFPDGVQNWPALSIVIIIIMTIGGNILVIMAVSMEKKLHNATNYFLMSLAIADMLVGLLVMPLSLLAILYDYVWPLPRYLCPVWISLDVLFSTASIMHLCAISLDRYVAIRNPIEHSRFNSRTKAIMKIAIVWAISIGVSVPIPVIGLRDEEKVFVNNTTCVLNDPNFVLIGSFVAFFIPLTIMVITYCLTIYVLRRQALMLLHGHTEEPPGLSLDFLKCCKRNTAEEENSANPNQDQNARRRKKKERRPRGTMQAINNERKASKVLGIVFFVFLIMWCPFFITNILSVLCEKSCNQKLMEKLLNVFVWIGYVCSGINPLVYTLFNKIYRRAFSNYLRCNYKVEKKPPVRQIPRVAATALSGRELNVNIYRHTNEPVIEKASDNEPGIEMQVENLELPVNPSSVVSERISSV
In short: (§1)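 Frozen CHO-K1 cells over-expressing receptor, serum-starved overnight, loaded with Ca4 dye plus 2.5 mM probenecid for 60 min at room temperature. FLIPR fluorescence (ex 480/em 530 nm, 25° C) recorded 3 min after compound addition; 6-point 1:10 series from 10 μM, 0.2% DMSO. Response normalized to serotonin, 4-parameter fit gives EC50; Emax as % of serotonin.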

5HT2B receptors = target: T2, 5HT2B receptors (Homo sapiens, UniProt P41595); test: Human 5-HT2B functional assay in CHO-K1 cells (calcium flux, FLIPR); assay type: cell-based; details: for Emax: CHO-K1, read-out: Emax (%), 5-HT2B Agonist Activity
T2 construct: expressed in transfected cells; host or cells: CHO-K1 cells
In short: as §1

[1] = CHO-K1 cells over-expressing 5HT2C, calcium flux, read-out: EC50 (μM), 5-HT2c Agonist Activity
[2] = CHO-K1 cells, percentage relative to the effect of serotonin, read-out: Emax (%), 5-HT2c Agonist Activity
[3] = CHO-K1 cells over-expressing 5HT2B, calcium flux, read-out: EC50 (μM), 5-HT2B Agonist Activity
[4] = CHO-K1, read-out: Emax (%), 5-HT2c Agonist Activity
[5] = CHO-K1, read-out: Emax (%), 5-HT2c Agonist Activity, CHO-K1 cells, percentage relative to the effect of serotonin

T2 sequence (P41595 whole entry): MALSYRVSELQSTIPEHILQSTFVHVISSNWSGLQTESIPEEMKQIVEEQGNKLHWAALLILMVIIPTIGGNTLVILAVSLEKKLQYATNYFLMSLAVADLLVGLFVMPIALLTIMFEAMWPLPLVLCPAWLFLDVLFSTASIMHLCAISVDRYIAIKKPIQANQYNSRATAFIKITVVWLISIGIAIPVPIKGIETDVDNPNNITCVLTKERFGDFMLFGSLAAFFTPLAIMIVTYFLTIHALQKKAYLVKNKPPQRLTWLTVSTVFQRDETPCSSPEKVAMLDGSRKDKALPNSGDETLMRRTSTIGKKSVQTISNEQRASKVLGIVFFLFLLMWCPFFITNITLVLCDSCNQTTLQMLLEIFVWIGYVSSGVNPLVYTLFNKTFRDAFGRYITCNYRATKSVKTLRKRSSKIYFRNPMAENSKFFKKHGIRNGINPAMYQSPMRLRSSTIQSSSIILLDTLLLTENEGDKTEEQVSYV

| SMILES | EC50 (5HT2C receptors; [1]) | Emax (5HT2C receptors; [2]) | EC50 (5HT2B receptors; [3]) | Emax (5HT2C receptors; [4]) | Emax (5HT2B receptors) | EC50 (5HT2C receptors) | Emax (5HT2C receptors; [5]) | EC50 (5HT2B receptors) | Emax (%), 5-HT2c Agonist Activity (5HT2C receptors; CHO-K1 cells, percentage relative to the effect of serotonin) |
| --- | --- | --- | --- | --- | --- | --- | --- | --- | --- |
| CS(=O)(=O)c1cccc(-c2ccc3c(c2)OCC[C@H]2CNCCN32)c1 [Example 238, (4aS)-9-[3-(methylsulfonyl)phenyl]-2,3,4,4a,5,6-hexahydro-1H-pyrazino[2,1-d][1,5]benzoxazepine] | 0.3 µM | 90% | > 10 µM | – | – | – | – | – | – |
| CS(=O)(=O)c1cccc(-c2cccc3c2OCC[C@H]2CNCCN32)c1 [Example 239, (4aS)-8-[3-(methylsulfonyl)phenyl]-2,3,4,4a,5,6-hexahydro-1H-pyrazino[2,1-d][1,5]benzoxazepine] | 0.04 µM | 105% | > 10 µM | – | – | – | – | – | – |
| FCCN1CCN2c3ccccc3OCC[C@H]2C1 [Example 240, (4aS)-3-(2-fluoroethyl)-2,3,4,4a,5,6-hexahydro-1H-pyrazino[2,1-d][1,5]benzoxazepine] | 0.04 µM | – | 1 µM | 90% | 10% | – | – | – | – |
| COc1cccc2c1OCC[C@H]1CNCCN21 [Example 241, (4aS)-8-methoxy-2,3,4,4a,5,6-hexahydro-1H-pyrazino[2,1-d][1,5]benzoxazepine] | – | – | – | – | – | 0.02 µM | 90% | > 10 µM | – |
| Cc1cccc2c1OCC[C@H]1CN(C)CCN21 [Example 242, (4aS)-3,8-dimethyl-2,3,4,4a,5,6-hexahydro-1H-pyrazino[2,1-d][1,5]benzoxazepine] | – | – | – | – | – | 0.002 µM | 80% | > 10 µM | – |
| COc1ccc2c(c1)OCC[C@H]1CNCCN21 [Example 243, (4aS)-9-methoxy-2,3,4,4a,5,6-hexahydro-1H-pyrazino[2,1-d][1,5]benzoxazepine] | – | – | – | – | – | 0.05 µM | – | > 10 µM | 55% |
| Cc1c(F)ccc2c1OCC[C@H]1CNCCN21 [Example 244] | – | – | – | – | 15% | 0.0004 µM | 95% | 0.03 µM | – |
| FCCN1CCN2c3cccc(F)c3OCC[C@H]2C1 [Example 245, (4aS)-8-fluoro-3-(2-fluoroethyl)-2,3,4,4a,5,6-hexahydro-1H-pyrazino[2,1-d][1,5]benzoxazepine] | 0.009 µM | – | 0.2 µM | 95% | 20% | – | – | – | – |
| Cc1cccc2c1OCC[C@H]1CN(CCF)CCN21 [Example 246, (4aS)-3-(2-fluoroethyl)-8-methyl-2,3,4,4a,5,6-hexahydro-1H-pyrazino[2,1-d][1,5]benzoxazepine] | 0.007 µM | – | > 10 µM | 95% | – | – | – | – | – |
| c1cc(-c2ccncc2)c2c(c1)N1CCNC[C@@H]1CCO2 [Example 247, (4aS)-8-(pyridin-4-yl)-2,3,4,4a,5,6-hexahydro-1H-pyrazino[2,1-d][1,5]benzoxazepine] | – | – | – | – | – | 0.007 µM | 85% | > 10 µM | – |
| c1cncc(-c2cccc3c2OCC[C@H]2CNCCN32)c1 [Example 248, (4aS)-8-(pyridin-3-yl)-2,3,4,4a,5,6-hexahydro-1H-pyrazino[2,1-d][1,5]benzoxazepine] | – | – | – | – | – | 0.0007 µM | 85% | > 10 µM | – |
| c1csc(-c2cccc3c2OCC[C@H]2CNCCN32)c1 [Example 249, (4aS)-8-(2-thienyl)-2,3,4,4a,5,6-hexahydro-1H-pyrazino[2,1-d][1,5]benzoxazepine] | 0.0001 µM | 75% | > 10 µM | – | – | – | – | – | – |
| c1cc(-c2ccsc2)c2c(c1)N1CCNC[C@@H]1CCO2 [Example 250, (4aS)-8-(3-thienyl)-2,3,4,4a,5,6-hexahydro-1H-pyrazino[2,1-d][1,5]benzoxazepine] | 0.0001 µM | 95% | > 10 µM | – | – | – | – | – | – |
| c1coc(-c2cccc3c2OCC[C@H]2CNCCN32)c1 [Example 251, (4aS)-8-(2-furyl)-2,3,4,4a,5,6-hexahydro-1H-pyrazino[2,1-d][1,5]benzoxazepine] | 0.0001 µM | 90% | > 10 µM | – | – | – | – | – | – |
| [2H]c1cccc2c1OCC[C@H]1CNCCN21 [Example 254, (4aS)-(8-^2H)-2,3,4,4a,5,6-hexahydro-1H-pyrazino[2,1-d][1,5]benzoxazepine] | – | – | – | – | 35% | 0.005 µM | 115% | 0.09 µM | – |
| c1ccc2c(c1)OCC[C@@H]1CNCCN21 [Example 255, (4aR)-2,3,4,4a,5,6-hexahydro-1H-pyrazino[2,1-d][1,5]benzoxazepine] | – | – | – | – | 70% | 0.001 µM | 95% | 0.09 µM | – |

| SMILES | EC50 (5HT2C receptors; [1]) | Emax (5HT2C receptors; [2]) | EC50 (5HT2B receptors; [3]) | Emax (5HT2C receptors; [4]) | Emax (5HT2B receptors) | EC50 (5HT2C receptors) | Emax (5HT2C receptors; [5]) | EC50 (5HT2B receptors) | Emax (%), 5-HT2c Agonist Activity (5HT2C receptors; CHO-K1 cells, percentage relative to the effect of serotonin) |
| --- | --- | --- | --- | --- | --- | --- | --- | --- | --- |
| Fc1ccc2c(c1)OCC[C@@H]1CNCCN21 [Example 256, (4aR)-9-fluoro-2,3,4,4a,5,6-hexahydro-1H-pyrazino[2,1-d][1,5]benzoxazepine] | – | – | – | – | 80% | 0.001 µM | 90% | 0.06 µM | – |
| Cc1ccc2c(c1)N1CCNC[C@H]1CCO2 [Example 257, (4aR)-10-methyl-2,3,4,4a,5,6-hexahydro-1H-pyrazino[2,1-d][1,5]benzoxazepine] | – | – | – | – | 60% | 0.001 µM | 90% | 0.02 µM | – |
| Fc1ccc2c(c1)N1CCNC[C@H]1CCO2 [Example 258, (4aR)-10-fluoro-2,3,4,4a,5,6-hexahydro-1H-pyrazino[2,1-d][1,5]benzoxazepine] | – | – | – | – | 80% | 0.01 µM | 80% | 0.007 µM | – |
| Cc1ccc2c(c1)OCC[C@@H]1CNCCN21 [Example 259, (4aR)-9-methyl-2,3,4,4a,5,6-hexahydro-1H-pyrazino[2,1-d][1,5]benzoxazepine] | – | – | – | – | 70% | 0.004 µM | 100% | 0.1 µM | – |
| Clc1ccc2c(c1)OCC[C@@H]1CNCCN21 [Example 260, (4aR)-9-chloro-2,3,4,4a,5,6-hexahydro-1H-pyrazino[2,1-d][1,5]benzoxazepine] | – | – | – | – | 90% | 0.0003 µM | 100% | 0.03 µM | – |
| Clc1ccc2c(c1)N1CCNC[C@H]1CCO2 [Example 261, (4aR)-10-chloro-2,3,4,4a,5,6-hexahydro-1H-pyrazino[2,1-d][1,5]benzoxazepine] | – | – | – | – | 70% | 0.0004 µM | 90% | 0.03 µM | – |
| [2H]c1ccc2c(c1)N1CCNC[C@@H]1CCO2 [Example 262, (4aS)-(10-^2H)-2,3,4,4a,5,6-hexahydro-1H-pyrazino[2,1-d][1,5]benzoxazepine] | – | – | – | – | 15% | 0.005 µM | 90% | 0.2 µM | – |
| [2H]c1ccc2c(c1)OCC[C@H]1CNCCN21 [Example 263, (4aS)-(9-^2H)-2,3,4,4a,5,6-hexahydro-1H-pyrazino[2,1-d][1,5]benzoxazepine] | – | – | – | – | 15% | 0.003 µM | 95% | 0.09 µM | – |
| CC(C)N1CCN2c3ccccc3OCC[C@H]2C1 [Example 264, (4aS)-3-isopropyl-2,3,4,4a,5,6-hexahydro-1H-pyrazino[2,1-d][1,5]benzoxazepine] | 0.9 µM | – | > 10 µM | – | – | – | 50% | – | – |
| FCC(CF)N1CCN2c3ccccc3OCC[C@H]2C1 [Example 265, (4aS)-3-(1,3-difluoropropan-2-yl)-2,3,4,4a,5,6-hexahydro-1H-pyrazino[2,1-d][1,5]benzoxazepine] | 2 µM | – | > 10 µM | 70% | – | – | – | – | – |
| C[C@@H]1CN2c3ccccc3OCC[C@H]2CN1 [Example 266, (2R,4aS)-2-methyl-2,3,4,4a,5,6-hexahydro-1H-pyrazino[2,1-d][1,5]benzoxazepine] | – | – | – | – | 15% | 0.1 µM | 70% | 0.5 µM | – |
| [2H]c1cc2c(cc1[2H])N1CCNC[C@@H]1CCO2 [Example 267, (4aS)-(9,10-^2H2)-2,3,4,4a,5,6-hexahydro-1H-pyrazino[2,1-d][1,5]benzoxazepine] | – | – | – | – | 20% | 0.005 µM | 90% | 0.2 µM | – |
| CN1CCN2c3ccccc3OCC[C@@H]2C1 [Example 268, (4aR)-3-methyl-2,3,4,4a,5,6-hexahydro-1H-pyrazino[2,1-d][1,5]benzoxazepine] | – | – | – | – | 50% | 0.01 µM | 95% | 0.2 µM | – |
| FCCN1CCN2c3ccccc3OCC[C@@H]2C1 [Example 269, (4aR)-3-(2-fluoroethyl)-2,3,4,4a,5,6-hexahydro-1H-pyrazino[2,1-d][1,5]benzoxazepine] | 0.09 µM | – | 0.6 µM | 90% | 50% | – | – | – | – |
| Fc1cccc2c1OCC[C@@H]1CNCCN21 [Example 270, (4aR)-8-fluoro-2,3,4,4a,5,6-hexahydro-1H-pyrazino[2,1-d][1,5]benzoxazepine] | – | – | – | – | 80% | 0.0009 µM | 90% | 0.04 µM | – |
